According to patent US20090298864A1, “Methods for Treating Mild Cognitive Impairment” (The Trustees of Columbia University in the City of New York, priority 2005, published 2009):
“Also recorded” adds a separate entry of the source.

Legend:
APP mice = experiment: Contextual fear learning (freezing) in APP mouse model of mild cognitive impairment; assay type: in vivo; conditions: single transgenic APP mice, 3-5 months old; rolipram 0.3 mg/kg vs vehicle; freezing measured 24 hours after training; FIG. 1
Protocol: (§1) The effect of rolipram on contextual fear learning in APP mice was determined according to the methods set forth in Gong et al., J Clin Invest. 114(11):1624-34 (2004), which are described briefly as follows:
(§2) Three to five month old single transgenic APP and WT mice were separated into four groups: APP mice treated with vehicle (“APP control group”), APP mice treated with rolipram at 0.3 mg/kg (“APP rolipram group”), WT mice treated with vehicle (“control vehicle group”), and WT mice treated with rolipram at 0.3 mg/kg (“control rolipram group”). 30 minutes after treatment with either vehicle or rolipram, the mice were placed in a conditioning chamber and subjected to a series of electrical shocks to the feet. Animal behavior was evaluated for three types of response to the shocks (flinching, jumping and screaming) and thresholds for various types of responses were determined for each animal
(§3) Mice were placed in the conditioning chamber for about 2 minutes, then an auditory tone was given for about 30 seconds. During the last two seconds of the tone, the mice were given a foot shock. The mice were left in the conditioning chamber for about 30 seconds, then were returned to their home cages. […]
(§4) To evaluate contextual fear learning, freezing was measured for 5 consecutive minutes in the conditioning chamber 24 hours after training.

[1] = system: mouse model of Alzheimer's disease; conditions: brief treatment of a mouse model of Alzheimer's disease; cited from earlier work
WT mice = experiment: Contextual fear learning (freezing) in WT control mice; assay type: in vivo, mouse; conditions: rolipram 0.3 mg/kg vs vehicle, freezing measured 24 hours after training, FIG. 1
Protocol: as §1, §2, §3, §4

## COc1ccc(C2CNC(=O)C2)cc1OC1CCCC1 (stereo not drawn) [rolipram]
APP mice
  freezing in the contextual fear conditioning test (contextual fear learning): much higher incidence of freezing; also recorded: improved contextual fear learning
[1]
  memory (long-term potential and contextual learning): improves memory in both long-term potential and contextual learning
WT mice
  freezing responses in the contextual fear conditioning test: no significant difference
